According to ChEMBL document CHEMBL4699428, “Anticancer potential of some imidazole and fused imidazole derivatives: exploring the mechanism via epidermal growth factor receptor (EGFR) inhibition” (RSC Med Chem, 2020):
Activity calls are given as the source filed them. The calls are words filed in the database; no cut-off is given here.

Legend:
[1] = system: MDA-MB-231; assay: Antiproliferative activity against human MDA-MB-231 cells assessed as reduction in cell viability incubated for 48 hrs by MTT assay; assay type: functional, cell-based; conditions: MDA-MB-231, 48 h
[2] = system: T47D; assay: Antiproliferative activity against human T47D cells assessed as reduction in cell viability incubated for 48 hrs by MTT assay; assay type: functional, cell-based
[3] = system: MCF7; assay: Antiproliferative activity against human MCF-7 cells assessed as reduction in cell viability incubated for 48 hrs by MTT assay; assay type: functional, cell-based; conditions: MCF7, 48 h
[4] = system: A549; assay: Antiproliferative activity against human A549 cells assessed as reduction in cell viability incubated for 48 hrs by MTT assay; assay type: functional, cell-based; conditions: A549, 48 h
[5] = system: HT-29; assay: Antiproliferative activity against human HT-29 cells assessed as reduction in cell viability incubated for 48 hrs by MTT assay; assay type: functional, cell-based; conditions: HT-29, 48 h
[6] = Cytotoxicity against human peripheral blood mononuclear cells assessed as reduction in cell survival at 10 uM incubated for 48 hrs by MTT assay; assay type: cell-based; conditions: pbmc
[7] = system: HBL-100; assay: Cytotoxicity against human HBL-100 cells assessed as disruption of cell morphology at 10 uM; assay type: cell-based; conditions: hbl-100, 10 µM
[8] = system: HBL-100; assay: Cytotoxicity against human HBL-100 cells assessed as reduction in cell survival at 10 uM incubated for 48 hrs by MTT assay; assay type: cell-based; conditions: hbl-100, 48 h
[9] = target: Epidermal growth factor receptor (Homo sapiens, UniProt P00533); assay: Inhibition of EGFR (unknown origin) using Tyrosine 4 peptide and ATP as substrate incubated for 1 hr by Z'-lyte kinase assay based […] method
Epidermal growth factor receptor, sequence (P00533 whole entry): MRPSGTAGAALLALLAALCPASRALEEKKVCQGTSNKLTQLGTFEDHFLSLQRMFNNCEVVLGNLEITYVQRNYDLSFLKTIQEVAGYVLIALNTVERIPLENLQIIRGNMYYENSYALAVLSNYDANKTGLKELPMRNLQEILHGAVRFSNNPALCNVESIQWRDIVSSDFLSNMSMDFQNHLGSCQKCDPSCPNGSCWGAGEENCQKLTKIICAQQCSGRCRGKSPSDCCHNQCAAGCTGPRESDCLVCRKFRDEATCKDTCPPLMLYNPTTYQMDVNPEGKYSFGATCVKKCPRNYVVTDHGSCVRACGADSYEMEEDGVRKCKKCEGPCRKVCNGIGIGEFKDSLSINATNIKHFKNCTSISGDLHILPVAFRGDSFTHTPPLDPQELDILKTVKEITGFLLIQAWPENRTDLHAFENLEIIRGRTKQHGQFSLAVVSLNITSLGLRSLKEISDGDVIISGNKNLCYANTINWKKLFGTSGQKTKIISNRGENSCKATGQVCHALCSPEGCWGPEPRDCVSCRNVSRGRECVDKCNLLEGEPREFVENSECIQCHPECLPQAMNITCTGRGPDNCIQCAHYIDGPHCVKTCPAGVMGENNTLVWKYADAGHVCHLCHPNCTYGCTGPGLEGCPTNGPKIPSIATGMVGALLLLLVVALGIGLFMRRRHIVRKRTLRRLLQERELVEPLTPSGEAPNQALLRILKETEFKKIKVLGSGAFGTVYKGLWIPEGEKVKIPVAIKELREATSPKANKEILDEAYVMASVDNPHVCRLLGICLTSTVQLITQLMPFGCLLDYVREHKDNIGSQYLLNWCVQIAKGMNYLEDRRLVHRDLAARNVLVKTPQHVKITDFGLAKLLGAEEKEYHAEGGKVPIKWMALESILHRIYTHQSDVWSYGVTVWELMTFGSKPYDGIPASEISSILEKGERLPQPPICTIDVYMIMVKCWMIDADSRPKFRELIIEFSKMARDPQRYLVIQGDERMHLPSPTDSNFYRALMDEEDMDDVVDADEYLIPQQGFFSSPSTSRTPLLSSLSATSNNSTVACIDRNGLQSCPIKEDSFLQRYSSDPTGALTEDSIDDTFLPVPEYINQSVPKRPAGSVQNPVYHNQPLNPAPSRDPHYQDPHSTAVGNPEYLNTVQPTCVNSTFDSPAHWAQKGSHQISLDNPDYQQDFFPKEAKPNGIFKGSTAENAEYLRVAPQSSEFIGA

[10] = system: MDA-MB-231; assay: Induction of reactive oxygen species generation in human MDA-MB-231 cells assessed as increase in intracellular ROS level at sub-IC50 concentration incubated for 48 hrs by H2DCFDA staining based flow cytometry; assay type: functional, cell-based
[11] = system: MDA-MB-231; assay: Induction of mitochondrial membrane potential depolarization in human MDA-MB-231 cells assessed as […] fluorescence to green fluorescence ratio at sub-IC50 concentration incubated for 48 hrs by JC1 staining based flow cytometry; assay type: functional, cell-based

Row | Structure (SMILES) | IC50 [1] | IC50 [2] | IC50 [3] | IC50 [4] | IC50 [5] | Activity [6] | Activity [7] | Activity [8] | IC50 [9] | Activity [10] | Activity [11]
1 | COc1ccc(/C=N/c2c(C#N)ncn2Cc2ccc(F)cc2)cc1 | 2.87 µM | 9.19 µM | 3.87 µM | 4.62 µM | 9.19 µM | Non-Toxic | Toxic |  |  |  | 
2 | COc1ccc(C2N=C(C(N)=O)c3ncn(-c4ccc(F)cc4)c3N2)cc1OC (centres undefined) | 6.76 µM | 9.96 µM | 5.71 µM | 2.29 µM | 3.29 µM | Non-Toxic | Non-Toxic | Non-Toxic | 0.617 µM |  | 
3 | COc1ccc(/C=N/c2c(C#N)ncn2-c2ccc(F)cc2)cc1OC | 4.27 µM | 7.23 µM | 14.7 µM | 2.96 µM | 7.23 µM | Toxic |  |  |  |  | 
4 | COc1cc(/C=N/c2c(C#N)ncn2Cc2ccc(F)cc2)ccc1O | 16.1 µM | 21.5 µM | 11.3 µM | 10.9 µM | 21.5 µM |  |  |  |  |  | 
5 | COc1cc(/C=N/c2c(C#N)ncn2-c2ccc(F)cc2)ccc1O | 13.6 µM | 20.1 µM | 9.99 µM | 13.6 µM | 20.1 µM |  |  |  |  |  | 
6 | N#Cc1ncn(Cc2ccc(F)cc2)c1/N=C/c1ccc([N+](=O)[O-])cc1 | 3.44 µM | 5.72 µM | 10.6 µM | 2.02 µM | 5.72 µM | Toxic |  |  |  |  | 
7 | COc1ccc(OC)c(/C=N/c2c(C#N)ncn2-c2ccc(F)cc2)c1 | 12.3 µM | 16.3 µM | 7.09 µM | 9.28 µM | 16.3 µM |  |  |  |  |  | 
8 | COc1cc(C2N=C(C(N)=O)c3ncn(-c4ccc(F)cc4)c3N2)cc(OC)c1OC (centres undefined) | 8.67 µM | 10.7 µM | 7.46 µM | 2.29 µM | 2.37 µM | Toxic |  |  |  |  | 
9 | COc1ccc(/C=N/c2c(C#N)ncn2-c2ccc(F)cc2)cc1 | 17.1 µM | 19.4 µM | 9.33 µM | 17.1 µM | 19.4 µM |  |  |  |  |  | 
10 | CC(C)c1ccc(/C=N/c2c(C#N)ncn2-c2ccc(F)cc2)cc1 | 20.4 µM | > 25 µM | 9.87 µM | 14.7 µM | > 25 µM |  |  |  |  |  | 
11 | N#Cc1ncn(-c2ccc(F)cc2)c1/N=C/c1ccc(O)cc1 | 16.3 µM | 20.4 µM | 11.5 µM | 16.3 µM | 20.4 µM |  |  |  |  |  | 
12 | N#Cc1ncn(-c2ccc(F)cc2)c1/N=C/c1cc([N+](=O)[O-])ccc1O | 17.2 µM | 15.3 µM | 9.99 µM | 17.2 µM | 15.3 µM |  |  |  |  |  | 
13 | COc1ccc(/C=N/c2c(C#N)ncn2Cc2ccc(F)cc2)cc1O | 2.67 µM | 6.14 µM | 4.53 µM | 1.32 µM | 6.14 µM | Non-Toxic | Toxic |  |  |  | 
14 | COc1ccc(/C=N/c2c(C#N)ncn2Cc2ccc(F)cc2)cc1OC | 10.5 µM | 8.2 µM | 11.1 µM | 9.13 µM | 13.8 µM |  |  |  |  |  | 
15 | COc1ccc(C2N=C(C(N)=O)c3ncn(-c4ccc(N5CCN(C)CC5)c([N+](=O)[O-])c4)c3N2)cc1OC (centres undefined) |  |  |  |  |  |  |  |  |  | Active | Active
16 | COc1cc(/C=N/c2c(C#N)ncn2-c2ccc(F)cc2)cc(OC)c1OC | 18.7 µM | 13.7 µM | 8.32 µM | 9.88 µM | 13.7 µM |  |  |  |  |  | 
17 | COc1ccc(/C=N/c2c(C#N)ncn2Cc2ccc(F)cc2)c(OC)c1OC | > 25 µM | > 25 µM | 12.6 µM | 24.3 µM | > 25 µM |  |  |  |  |  | 
18 | COc1cc(/C=N/c2c(C#N)ncn2Cc2ccc(F)cc2)cc(OC)c1OC | 2.87 µM | 17.5 µM | 9.04 µM | 9.71 µM | 16.5 µM | Toxic |  |  |  |  | 
19 | COc1ccc(OC)c(/C=N/c2c(C#N)ncn2Cc2ccc(F)cc2)c1 | 17.6 µM | 22.4 µM | 10.9 µM | 13.1 µM | 22.4 µM |  |  |  |  |  | 
20 | N#Cc1ncn(-c2ccc(F)cc2)c1/N=C/c1ccc([N+](=O)[O-])cc1 | 13.4 µM | 15.9 µM | 9.1 µM | 18.1 µM | 15.9 µM |  |  |  |  |  | 
21 | COc1ccc(/C=N/c2c(C#N)ncn2-c2ccc(F)cc2)cc1O | 21.4 µM | 19.9 µM | 7.85 µM | > 25 µM | 19.9 µM |  |  |  |  |  | 
